US10183936B2, “Hepatitis B core protein allosteric modulators” (priority 2014, dated 2019)

How the values were obtained:
[1] = test system: HBV viral production in AD38 cells; assay: Viral load production in AD38 cells by quantitative PCR of the HBV core sequence in supernatant; format: cell-based; settings: 10 μM compound, 6 days at 37° C., viral load in supernatant compared against DMSO control wells; for activity at 10 µM: Hepatitis B virus, 144 h, read-out: AD38 Viral Load (CpAM/DMSO %) at 10 μM
How it was run: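 AD38 cells seeded at 50,000/well, treated 6 days at 37° C with compound added as 10× solution in 10% DMSO. HBV core sequence in clarified supernatant quantified by TaqMan qPCR against known standards; viral load compared with DMSO control wells.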

[2] = test system: AD38 cells; assay: Viability of AD38 cells (Promega CellTiter-Glo) at the end of compound treatment; format: cell-based; settings: 10 μM compound, 6 days, luminescence normalized against DMSO control wells (controls being 100%)
How it was run: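 AD38 cells seeded at 50,000/well received compound from a 10× solution in 10% DMSO and were incubated 6 days at 37° C. Viability was then read by CellTiter-Glo luminescence in tetracycline-free medium with 2% FBS and 1% DMSO, normalized to DMSO control wells (100%) and reported as percent viability.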

Row | SMILES | activity at 10 µM [1] [%] | AD38 Viability Normalized Result (CPAM/DMSO %) at 10 μM [2] [%] | AD38 Viral Load (CpAM/DMSO %) at 10 μM [1] [%]
1 | CN1c2ccc(C(=O)NCc3cncnc3)cc2NC(=O)c2ccccc21 [Compound 1520] | 1 | 81 | –
2 | CN1c2ccc(C(=O)NCCc3ccc(-c4ccccc4)cc3)cc2NC(=O)c2ccccc21 [Compound 1521] | 1 | 22 | –
3 | CCN1c2ccc(C(=O)NCCc3ccccn3)cc2NC(=O)c2ccccc21 [Compound 1522] | 1 | 82 | –
4 | CCN1c2ccc(C(=O)NCCc3cccnc3)cc2NC(=O)c2ccccc21 [Compound 1523] | 1 | 70 | –
5 | CCN1c2ccc(C(=O)NCCc3ccc(-c4ccccc4)cc3)cc2NC(=O)c2ccccc21 [Compound 1524] | 2 | 18 | –
6 | NC(=O)c1ccc2c(c1)NC(=O)c1ccccc1S2 [Compound 1525] | 78 | 85 | –
7 | O=C1Nc2cc(S(=O)(=O)Nc3ccc(F)cc3F)ccc2Sc2ccccc21 [Compound 1526] | 57 | 92 | –
8 | O=C(NCCc1cncs1)c1ccc2c(c1)NC(=O)c1ccccc1[S+]2[O-] (stereo not shown) [Compound 1527] | 19 | 116 | –
9 | O=C(NCCc1cncs1)c1ccc2c(c1)NC(=O)c1cccc(F)c1S2 [Compound 1528] | 4 | 85 | –
10 | Cc1c(C(=O)NCCc2cncnc2)ccc2c1NC(=O)c1ccccc1S2 [Compound 1529] | 12 | 111 | –
11 | O=C1Nc2c(cc(F)c(C(=O)NCc3cnco3)c2F)Sc2ccccc21 [Compound 1530] | 70 | 93 | –
12 | O=C1Nc2c(cc(F)c(C(=O)NCCc3cccnc3)c2F)Sc2ccccc21 [Compound 1531] | 53 | 96 | –
13 | CN1c2ccc(C(=O)NCCc3cncs3)cc2NC(=O)c2ccccc21 [Compound 1532] | 17 | 112 | –
14 | CCN1c2ccc(C(=O)NCc3cncnc3)cc2NC(=O)c2ccccc21 [Compound 1533] | 2 | 105 | –
15 | CCN1c2ccc(C(=O)NCc3cncs3)cc2NC(=O)c2ccccc21 [Compound 1534] | 5 | 109 | –
16 | O=C(NCc1cncs1)c1ccc2c(c1)NC(=O)c1ccccc1[SH]2O (stereo not shown) [Compound 1535] | – | 85 | 108
17 | O=C(NCc1cncs1)c1ccc2c(c1)NC(=O)c1ccccc1[SH]2O (stereo not shown) [Compound 1536] | – | 120 | 2
18 | O=C(Nc1nnco1)c1ccc2c(c1)NC(=O)c1cc(F)ccc1S2 [Compound 1537] | 36 | 98 | –
19 | O=C(NCc1cncnc1)c1ccc2c(c1)NC(=O)c1c(F)cccc1S2 [Compound 1540] | 12 | 87 | –

Row | SMILES | activity at 10 µM [1] [%] | AD38 Viability Normalized Result (CPAM/DMSO %) at 10 μM [2] [%] | AD38 Viral Load (CpAM/DMSO %) at 10 μM [1] [%]
20 | O=C(NCc1cncs1)c1ccc2c(c1)NC(=O)c1c(F)cccc1S2 [Compound 1541] | 11 | 117 | –
21 | O=C(NCc1cnco1)c1ccc2c(c1)NC(=O)c1c(F)cccc1S2 [Compound 1542] | 34 | 95 | –
22 | O=C(NCCc1cncnc1)c1ccc2c(c1)NC(=O)c1c(F)cccc1S2 [Compound 1543] | 72 | 90 | –
23 | O=C1Nc2cc(S(=O)(=O)Nc3ccc(Cl)cc3F)ccc2Sc2ccccc21 [Compound 1544] | 40 | 97 | –
24 | O=C1Nc2c(cc(F)c(C(=O)NCc3cncs3)c2F)Sc2ccccc21 [Compound 1545] | 59 | 88 | –
25 | O=C1Nc2c(cc(F)c(C(=O)NCc3cccnc3)c2F)Sc2ccccc21 [Compound 1546] | 65 | 89 | –
26 | CN1c2ccc(C(=O)NCc3cnco3)cc2NC(=O)c2ccccc21 [Compound 1547] | 16 | 90 | –
27 | CN1c2ccc(C(=O)NCCc3cncnc3)cc2NC(=O)c2ccccc21 [Compound 1548] | 28 | 85 | –
28 | CN1c2ccc(C(=O)NCCc3cccnc3)cc2NC(=O)c2ccccc21 [Compound 1549] | 7 | 109 | –
29 | CCN1c2ccc(C(=O)NCc3cccnc3)cc2NC(=O)c2ccccc21 [Compound 1550] | 1 | 87 | –
30 | O=C(NCCc1nnc[nH]1)c1ccc2c(c1)NC(=O)c1ccccc1S2 [Compound 1551] | 51 | 91 | –
31 | O=C(NC(Cc1nnc[nH]1)c1ccccc1)c1ccc2c(c1)NC(=O)c1ccccc1S2 (stereo not shown) [Compound 1552] | 64 | 93 | –
32 | CN1C(=O)c2ccccc2Sc2ccc(C(=O)NCc3cccnc3)cc21 [Compound 1553] | 86 | 93 | –
33 | O=C(NCCc1cccnc1)c1ccc2c(c1)NC(=O)c1c(F)cccc1S2 [Compound 1555] | 36 | 81 | –
34 | O=C1Nc2cc(S(=O)(=O)NCc3cncs3)ccc2Sc2ccccc21 [Compound 1556] | 67 | 86 | –
35 | O=C(NCCc1cnco1)c1cc2c(cc1F)Sc1ccccc1C(=O)N2 [Compound 1557] | 54 | 86 | –
36 | O=C(NCCc1cncs1)c1cc2c(cc1F)Sc1ccccc1C(=O)N2 [Compound 1558] | 51 | 88 | –
37 | O=C(NCCc1cnco1)c1ccc2c(c1)NC(=O)c1ccccc1N2Cc1ccccc1 [Compound 1559] | 68 | 92 | –
38 | Cc1c(C(=O)NCCc2cnco2)ccc2c1NC(=O)c1ccccc1S2 [Compound 1560] | 13 | 92 | –

Row | SMILES | activity at 10 µM [1] [%] | AD38 Viability Normalized Result (CPAM/DMSO %) at 10 μM [2] [%] | AD38 Viral Load (CpAM/DMSO %) at 10 μM [1] [%]
39 | Cc1c(C(=O)NCCc2cncs2)ccc2c1NC(=O)c1ccccc1S2 [Compound 1561] | 8 | 118 | –
40 | O=C1Nc2c(cc(F)c(C(=O)NCCc3cncnc3)c2F)Sc2ccccc21 [Compound 1562] | 25 | 89 | –
41 | O=C1Nc2c(cc(F)c(C(=O)NCCc3cncs3)c2F)Sc2ccccc21 [Compound 1563] | 41 | 93 | –
42 | CCN1c2ccc(C(=O)NCc3cnco3)cc2NC(=O)c2ccccc21 [Compound 1564] | 10 | 119 | –
43 | CCN1c2ccc(C(=O)NCCc3cncnc3)cc2NC(=O)c2ccccc21 [Compound 1565] | 4 | 103 | –
44 | CCN1c2ccc(C(=O)NCCc3cncs3)cc2NC(=O)c2ccccc21 [Compound 1566] | 31 | 91 | –
45 | Cc1nnc(CCNC(=O)c2ccc3c(c2)NC(=O)c2ccccc2S3)s1 [Compound 1567] | 1 | 109 | –
46 | Nc1nnc(CCNC(=O)c2ccc3c(c2)NC(=O)c2ccccc2S3)s1 [Compound 1568] | 1 | 100 | –
47 | O=C(NCCc1cccnn1)c1ccc2c(c1)NC(=O)c1ccccc1S2 [Compound 1569] | 1 | 114 | –
48 | O=C(NCCc1nnc(-c2ccco2)[nH]1)c1ccc2c(c1)NC(=O)c1ccccc1S2 [Compound 1570] | 2 | 115 | –
49 | O=C(NCc1nncs1)c1ccc2c(c1)NC(=O)c1ccccc1S2 [Compound 1571] | 35 | 117 | –
50 | O=C(NCc1ccncc1)c1ccc2c(c1)NC(=O)c1ccccc1S2 [Compound 1572] | 5 | 116 | –
51 | CN1C(=O)c2ccccc2Sc2ccc(C(=O)NCc3cncs3)cc21 [Compound 1573] | 46 | 126 | –
52 | CN1C(=O)c2ccccc2Sc2ccc(C(=O)NCc3cncnc3)cc21 [Compound 1574] | 78 | 109 | –
53 | NC(=O)c1ccc2c(c1)NC(=O)c1ccccc1[S+]2[O-] (stereo not shown) [Compound 1575] | 90 | 108 | –
54 | Cc1nnc(CNC(=O)c2ccc3c(c2)NC(=O)c2ccccc2S3)o1 [Compound 1578] | 33 | 100 | –
55 | O=C(NCCc1cnco1)c1ccc2c(c1)NC(=O)c1c(F)cccc1S2 [Compound 1580] | 59 | 89 | –
56 | CN1c2ccc(C(=O)NCc3cncs3)cc2NC(=O)c2ccccc21 [Compound 1581] | 3 | 97 | –
